Measurements reported in US8940724B2, “Quinoline derivitives and their uses” (Amgen Inc., priority 2009, dated 2015).

Molecular target: T1, PI3Kδ (Homo sapiens, UniProt O00329)
T1 construct: Full length p110 subunits of PI3k α, β and δ, N-terminally labeled with polyHis tag; polyHis (N); made in house; host or cells: Sf9 insect cells (baculovirus)
Assay: PI3Kδ Alphascreen assay
Assay type: biochemical

T1 sequence (O00329 whole entry): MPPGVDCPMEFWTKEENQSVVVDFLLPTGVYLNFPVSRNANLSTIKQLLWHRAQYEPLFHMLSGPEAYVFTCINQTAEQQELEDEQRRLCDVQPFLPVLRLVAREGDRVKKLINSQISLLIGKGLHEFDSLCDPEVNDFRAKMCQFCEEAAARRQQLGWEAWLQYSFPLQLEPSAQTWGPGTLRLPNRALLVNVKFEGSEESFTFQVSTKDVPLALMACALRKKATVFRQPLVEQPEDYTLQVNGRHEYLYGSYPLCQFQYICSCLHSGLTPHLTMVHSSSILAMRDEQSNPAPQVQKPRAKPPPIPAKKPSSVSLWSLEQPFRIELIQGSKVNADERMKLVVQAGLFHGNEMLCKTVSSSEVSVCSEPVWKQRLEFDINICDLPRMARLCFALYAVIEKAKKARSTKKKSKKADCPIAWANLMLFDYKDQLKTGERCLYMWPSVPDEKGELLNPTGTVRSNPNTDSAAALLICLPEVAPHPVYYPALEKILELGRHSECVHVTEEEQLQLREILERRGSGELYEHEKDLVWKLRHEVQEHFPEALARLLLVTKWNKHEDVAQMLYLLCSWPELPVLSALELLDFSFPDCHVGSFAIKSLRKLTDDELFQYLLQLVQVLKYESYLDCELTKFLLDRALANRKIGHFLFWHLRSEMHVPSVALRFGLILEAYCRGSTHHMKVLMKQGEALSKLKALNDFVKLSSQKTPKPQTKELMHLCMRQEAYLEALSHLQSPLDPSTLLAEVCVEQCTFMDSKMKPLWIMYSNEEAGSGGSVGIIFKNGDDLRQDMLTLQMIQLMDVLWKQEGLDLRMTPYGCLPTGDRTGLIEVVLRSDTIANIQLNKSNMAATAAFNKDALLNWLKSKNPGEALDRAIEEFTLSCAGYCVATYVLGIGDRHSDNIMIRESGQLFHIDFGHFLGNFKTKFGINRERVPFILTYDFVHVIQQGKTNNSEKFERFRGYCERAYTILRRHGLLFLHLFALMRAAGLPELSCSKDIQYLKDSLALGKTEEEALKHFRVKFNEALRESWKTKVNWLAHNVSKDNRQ
T1 sequence (P27986 whole entry partner): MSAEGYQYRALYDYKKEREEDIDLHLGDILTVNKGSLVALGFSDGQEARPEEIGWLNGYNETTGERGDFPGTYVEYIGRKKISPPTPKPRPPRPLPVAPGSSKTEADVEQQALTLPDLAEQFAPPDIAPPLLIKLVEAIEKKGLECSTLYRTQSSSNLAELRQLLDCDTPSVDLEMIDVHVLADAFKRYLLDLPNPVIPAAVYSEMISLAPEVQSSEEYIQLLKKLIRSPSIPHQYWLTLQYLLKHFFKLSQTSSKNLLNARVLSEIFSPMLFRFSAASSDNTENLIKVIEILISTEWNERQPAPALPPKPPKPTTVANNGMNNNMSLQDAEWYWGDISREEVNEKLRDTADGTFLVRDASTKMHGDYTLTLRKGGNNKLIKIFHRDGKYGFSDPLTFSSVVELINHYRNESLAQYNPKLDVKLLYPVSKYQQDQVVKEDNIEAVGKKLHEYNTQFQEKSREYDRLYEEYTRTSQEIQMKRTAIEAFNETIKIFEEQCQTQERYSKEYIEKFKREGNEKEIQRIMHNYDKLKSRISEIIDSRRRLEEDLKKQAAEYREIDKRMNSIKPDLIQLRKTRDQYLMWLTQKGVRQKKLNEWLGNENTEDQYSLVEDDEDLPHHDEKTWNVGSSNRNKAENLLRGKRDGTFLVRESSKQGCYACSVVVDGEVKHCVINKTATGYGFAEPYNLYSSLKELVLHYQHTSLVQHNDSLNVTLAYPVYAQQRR

How did the Ki turn out when `Cc1c(-c2ccccn2)nc2cc(F)cc(F)c2c1Nc1ccc(C#N)c(N2CCOCC2)c1` [4-((5,7-difluoro-3-methyl-2-(2-pyridinyl)-4-quinolinyl)amino)-2-(4-morpholinyl)benzonitrile] was run?
Its Ki is 484 nM.

For `Cc1c(-c2cc(-c3ccccc3)ccn2)nc2cc(F)cc(F)c2c1Nc1cc(N2CCOCC2)cnc1N1CCOCC1` [N-(2,5-di-4-morpholinyl-3-pyridinyl)-5,7-difluoro-3-methyl-2-(4-phenyl-2-pyridinyl)-4-quinolinamine], which Ki is on record?
The Ki was 47.9 nM.

How did the Ki turn out when `Cc1c(-c2ccccn2)nc2c(Cl)c(F)cc(F)c2c1Nc1cc(N2CCOCC2)cnc1N1CCOCC1` [8-chloro-N-(2,5-di-4-morpholinyl-3-pyridinyl)-5,7-difluoro-3-methyl-2-(2-pyridinyl)-4-quinolinamine] was run?
The Ki was 2.85 nM.

How did the Ki turn out when `COC(=O)N1CCN(c2nc3cc(F)cc(F)c3c(Nc3cncc(N4CCOCC4)c3)c2C)C[C@@H]1C` [methyl (2S)-4-(5,7-difluoro-3-methyl-4-((5-(4-morpholinyl)-3-pyridinyl)amino)-2-quinolinyl)-2-methyl-1-piperazinecarboxylate] was run?
Its Ki is 15 nM.

`Cc1c(N2CCN(S(=O)(=O)c3cccnc3)CC2)nc2cc(F)cc(F)c2c1Nc1cncc(N2CCOCC2)c1` [5,7-difluoro-3-methyl-N-(5-(4-morpholinyl)-3-pyridinyl)-2-(4-(3-pyridinylsulfonyl)-1-piperazinyl)-4-quinolinamine] was tested. Which Ki did it give?
Its Ki is 67.5 nM.

For `Cc1c(-c2ccc(C(F)(F)F)nc2)nc2cc(F)cc(F)c2c1Nc1cc(N2CCOCC2)cnc1N1CCOCC1` [N-(2,5-di-4-morpholinyl-3-pyridinyl)-5,7-difluoro-3-methyl-2-(6-(trifluoromethyl)-3-pyridinyl)-4-quinolinamine], which Ki is on record?
The Ki was 23.2 nM.

`COC(=O)N1CCN(c2nc3cc(F)cc(F)c3c(Nc3cc(N4CCOCC4)cnc3N3CCOCC3)c2C)CC1` [methyl 4-(4-((2,5-di-4-morpholinyl-3-pyridinyl)amino)-5,7-difluoro-3-methyl-2-quinolinyl)-1-piperazinecarboxylate] was tested. Which Ki did it give?
Its Ki is 7.02 nM.

`Cc1c(NCC(=O)O)nc2cc(F)cc(F)c2c1Nc1cncc(N2CCOCC2)c1` [N-(5,7-difluoro-3-methyl-4-((5-(4-morpholinyl)-3-pyridinyl)-amino)-2-quinolinyl)glycine] was tested. Which Ki did it give?
The Ki was 131 nM.

`Cc1c(N2CCN(C(=O)c3ncc[nH]3)CC2)nc2cc(F)cc(F)c2c1Nc1cncc(N2CCOCC2)c1` [5,7-difluoro-2-(4-(1H-imidazol-2-ylcarbonyl)-1-piperazinyl)-3-methyl-N-(5-(4-morpholinyl)-3-pyridinyl)-4-quinolinamine] was tested. Which Ki did it give?
The Ki was 54.4 nM.

How did the Ki turn out when `COc1cncc(-c2nc3cc(F)cc(F)c3c(Nc3cncc(N4CCOCC4)c3)c2C)c1` [5,7-difluoro-2-(5-methoxy-3-pyridinyl)-3-methyl-N-(5-(4-morpholinyl)-3-pyridinyl)-4-quinolinamine] was run?
Its Ki is 37.4 nM.

Which Ki does the source give for `COc1ccc(-c2ccc(N3CCOCC3)cc2Nc2c(C)c(-c3ccccc3S(C)(=O)=O)nc3cc(F)cc(F)c23)cn1` [5,7-difluoro-N-(2-(6-methoxy-3-pyridinyl)-5-(4-morpholinyl)-phenyl)-3-methyl-2-(2-(methylsulfonyl)phenyl)-4-quinolinamine] here?
The Ki was 2.73 nM.

For `Cc1ccc(C(=O)N2CCN(c3nc4cc(F)cc(F)c4c(Nc4cncc(N5CCOCC5)c4)c3C)CC2)o1` [5,7-difluoro-3-methyl-2-(4-((5-methyl-2-furanyl)carbonyl)-1-piperazinyl)-N-(5-(4-morpholinyl)-3-pyridinyl)-4-quinolinamine], which Ki is on record?
The Ki was 78.2 nM.

For `Cc1c(-c2ccccn2)nc2cnccc2c1Nc1cc(N2CCOCC2)ccc1N1CCOCC1` [N-(2,5-di-4-morpholinylphenyl)-3-methyl-2-(2-pyridinyl)-1,7-naphthyridin-4-amine], which Ki is on record?
The Ki was 876 nM.

For `Cc1ccncc1-c1nc2cc(F)cc(F)c2c(Nc2cc(N3CCOCC3)cnc2N2CCOCC2)c1C` [N-(2,5-di-4-morpholinyl-3-pyridinyl)-5,7-difluoro-3-methyl-2-(4-methyl-3-pyridinyl)-4-quinolinamine], which Ki is on record?
Its Ki is 1.61 nM.

How did the Ki turn out when `Cc1c(-c2cc([N+](=O)[O-])ccc2F)nc2cc(F)ccc2c1Nc1cc(N2CCOCC2)cnc1N1CCOCC1` [N-(2,5-di-4-morpholinyl-3-pyridinyl)-7-fluoro-2-(2-fluoro-5-nitrophenyl)-3-methyl-4-quinolinamine] was run?
Its Ki is 11.2 nM.

For `COc1ncccc1-c1ncc(N2CCOCC2)cc1Nc1c(C)c(-c2ccccn2)nc2cc(F)cc(F)c12` [N-(5,7-difluoro-3-methyl-2-(2-pyridinyl)-4-quinolinyl)-2′-methoxy-5-(4-morpholinyl)-2,3′-bipyridin-3-amine], which Ki is on record?
Its Ki is 121 nM.

With `COc1ccc(-c2ncc(N3CCOCC3)cc2Nc2c(C)c(-c3ccccc3S(C)(=O)=O)nc3cc(F)cc(F)c23)cn1` [N-(5,7-difluoro-3-methyl-2-(2-(methylsulfonyl)phenyl)-4-quinolinyl)-6′-methoxy-5-(4-morpholinyl)-2,3′-bipyridin-3-amine] as the compound, how does the Ki read?
Its Ki is 1.76 nM.

Which Ki does the source give for `COc1cncc(-c2cc(C#N)c(N3CCOCC3)cc2Nc2c(C)c(-c3ccccn3)nc3cc(F)cc(F)c23)c1` [4-((5,7-difluoro-3-methyl-2-(2-pyridinyl)-4-quinolinyl)amino)-5-(5-methoxy-3-pyridinyl)-2-(4-morpholinyl)benzonitrile] here?
Its Ki is 7.87 nM.

Which Ki does the source give for `Cc1c(-c2ccccc2S(C)(=O)=O)nc2cc(F)cc(F)c2c1Nc1cncc(C2=CCOCC2)c1` [N-(5-(3,6-dihydro-2H-pyran-4-yl)-3-pyridinyl)-5,7-difluoro-3-methyl-2-(2-(methylsulfonyl)phenyl)-4-quinolinamine] here?
Its Ki is 1.78 nM.

`Cc1c(N2CCN(C(=O)c3cocn3)CC2)nc2cc(F)cc(F)c2c1Nc1cncc(N2CCOCC2)c1` [5,7-difluoro-3-methyl-N-(5-(4-morpholinyl)-3-pyridinyl)-2-(4-(1,3-oxazol-4-ylcarbonyl)-1-piperazinyl)-4-quinolinamine] was tested. Which Ki did it give?
Its Ki is 14.5 nM.

With `CCCN1CCN(c2nc3cc(F)cc(F)c3c(Nc3cncc(N4CCOCC4)c3)c2C)CC1` [5,7-difluoro-3-methyl-N-(5-(4-morpholinyl)-3-pyridinyl)-2-(4-propyl-1-piperazinyl)-4-quinolinamine] as the compound, how does the Ki read?
The Ki was 13.5 nM.

How did the Ki turn out when `Cc1c(-c2cccnc2)nc2cc(F)cc(F)c2c1Nc1cc(N2CCOC[C@H]2C)cnc1N1CCOCC1` [5,7-difluoro-3-methyl-N-(5-((3R)-3-methyl-4-morpholinyl)-2-(4-morpholinyl)-3-pyridinyl)-2-(3-pyridinyl)-4-quinolinamine] was run?
The Ki was 69.5 nM.

How did the Ki turn out when `Cc1c(-c2ccccn2)nc2c(Cl)c(F)ccc2c1Nc1cc(N2CCOCC2)cnc1N1CCOCC1` [8-chloro-N-(2,5-di-4-morpholinyl-3-pyridinyl)-7-fluoro-3-methyl-2-(2-pyridinyl)-4-quinolinamine] was run?
Its Ki is 22.6 nM.

For `CC(=O)c1ccc(S(C)(=O)=O)c(-c2nc3cc(F)cc(F)c3c(Nc3cncc(N4CCOCC4)c3)c2C)c1` [1-(3-(5,7-difluoro-3-methyl-4-((5-(4-morpholinyl)-3-pyridinyl)-amino)-2-quinolinyl)-4-(methylsulfonyl)phenyl)ethanone], which Ki is on record?
Its Ki is 2.18 nM.

Which Ki does the source give for `COc1cncc(-c2ncc(N3CCOCC3)cc2Nc2c(C)c(-c3cc(C)ccn3)nc3c(C#N)cccc23)c1` [4-((5′-methoxy-5-(4-morpholinyl)-2,3′-bipyridin-3-yl)amino)-3-methyl-2-(4-methyl-2-pyridinyl)-8-quinolinecarbonitrile] here?
Its Ki is 233 nM.

With `COC(=O)N1CCN(c2nc3cc(F)cc(F)c3c(Nc3cncc(N4CCOCC4)c3)c2C)C[C@H]1C` [methyl (2R)-4-(5,7-difluoro-3-methyl-4-((5-(4-morpholinyl)-3-pyridinyl)amino)-2-quinolinyl)-2-methyl-1-piperazinecarboxylate] as the compound, how does the Ki read?
Its Ki is 185 nM.

With `Cc1c(-c2cccc3c2ccn3C)nc2cc(F)cc(F)c2c1Nc1cc(N2CCOCC2)cnc1N1CCOCC1` [N-(2,5-di-4-morpholinyl-3-pyridinyl)-5,7-difluoro-3-methyl-2-(1-methyl-1H-indol-4-yl)-4-quinolinamine] as the compound, how does the Ki read?
Its Ki is 16.1 nM.

How did the Ki turn out when `Cc1c(N2CCC[C@H]2C(=O)OC(C)(C)C)nc2cc(F)cc(F)c2c1Nc1cncc(N2CCOCC2)c1` [tert-butyl 1-(5,7-difluoro-3-methyl-4-((5-(4-morpholinyl)-3-pyridinyl)amino)-2-quinolinyl)-L-prolinate] was run?
Its Ki is 2.22 nM.

Which Ki does the source give for `Cc1c(-c2ccc(OCC3CC3)nc2)nc2cc(F)cc(F)c2c1Nc1cc(N2CCOCC2)cnc1N1CCOCC1` [2-(6-(cyclopropylmethoxy)-3-pyridinyl)-N-(2,5-di-4-morpholinyl-3-pyridinyl)-5,7-difluoro-3-methyl-4-quinolinamine] here?
Its Ki is 47.6 nM.

How did the Ki turn out when `Cc1c(-c2ccccn2)nc2cc(F)cc(F)c2c1Nc1cc(C#N)cc(N2CCOCC2)c1` [3-((5,7-difluoro-3-methyl-2-(2-pyridinyl)-4-quinolinyl)amino)-5-(4-morpholinyl)benzonitrile] was run?
Its Ki is 7.97 nM.

`COc1cncc(-c2ncc(N3CCOCC3)cc2Nc2c(C)c(-c3cc(C)ccn3)nc3c(Cl)cccc23)c1` [N-(8-chloro-3-methyl-2-(4-methyl-2-pyridinyl)-4-quinolinyl)-5′-methoxy-5-(4-morpholinyl)-2,3′-bipyridin-3-amine] was tested. Which Ki did it give?
The Ki was 9.01 nM.

For `CCOc1ccc(-c2nc3cc(F)cc(F)c3c(Nc3cncc(N4CCOCC4)c3)c2C)cn1` [2-(6-ethoxy-3-pyridinyl)-5,7-difluoro-3-methyl-N-(5-(4-morpholinyl)-3-pyridinyl)-4-quinolinamine], which Ki is on record?
Its Ki is 291 nM.

For `Cc1c(-c2ccc(N3CCC(O)C3)nc2)nc2cc(F)cc(F)c2c1Nc1cc(N2CCOCC2)cnc1N1CCOCC1` (centres unmarked) [1-(5-(4-((2,5-di-4-morpholinyl-3-pyridinyl)amino)-5,7-difluoro-3-methyl-2-quinolinyl)-2-pyridinyl)-3-pyrrolidinol], which Ki is on record?
Its Ki is 36.3 nM.

Which Ki does the source give for `Cc1c(-c2ccccn2)nc2cc(F)cc(F)c2c1Oc1cncc(N2CCOCC2)c1` [5,7-difluoro-3-methyl-4-((5-(4-morpholinyl)-3-pyridinyl)oxy)-2-(2-pyridinyl)quinoline] here?
The Ki was 51.9 nM.

For `Cc1ccnc(-c2nc3cc(F)cc(F)c3c(Nc3cc(N4CCOCC4)cnc3N3CCOCC3)c2C)c1` [N-(2,5-di-4-morpholinyl-3-pyridinyl)-5,7-difluoro-3-methyl-2-(4-methyl-2-pyridinyl)-4-quinolinamine], which Ki is on record?
The Ki was 237 nM.
